Reference: ChEMBL document CHEMBL1201862, “PubChem BioAssay data set” (2004)
The source made the active and inactive calls.

Legend:
[1] = molecular target: T1, Heat shock factor protein 1 (Mus musculus, UniProt P38532); test: enhancement of HSF1-driven luciferase signal – cell-based, NIH3T3, luminescence, dose retest, confirmation (AID 435004); format: functional;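 also: stress induced by proteasome inhibitor MG132 added 30 min after compound; luciferase reporter driven by HSF1 response element in NIH3T3 cells; actives raise luminescence as potentiators of the MG132 stress response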
T1 sequence (P38532 whole entry): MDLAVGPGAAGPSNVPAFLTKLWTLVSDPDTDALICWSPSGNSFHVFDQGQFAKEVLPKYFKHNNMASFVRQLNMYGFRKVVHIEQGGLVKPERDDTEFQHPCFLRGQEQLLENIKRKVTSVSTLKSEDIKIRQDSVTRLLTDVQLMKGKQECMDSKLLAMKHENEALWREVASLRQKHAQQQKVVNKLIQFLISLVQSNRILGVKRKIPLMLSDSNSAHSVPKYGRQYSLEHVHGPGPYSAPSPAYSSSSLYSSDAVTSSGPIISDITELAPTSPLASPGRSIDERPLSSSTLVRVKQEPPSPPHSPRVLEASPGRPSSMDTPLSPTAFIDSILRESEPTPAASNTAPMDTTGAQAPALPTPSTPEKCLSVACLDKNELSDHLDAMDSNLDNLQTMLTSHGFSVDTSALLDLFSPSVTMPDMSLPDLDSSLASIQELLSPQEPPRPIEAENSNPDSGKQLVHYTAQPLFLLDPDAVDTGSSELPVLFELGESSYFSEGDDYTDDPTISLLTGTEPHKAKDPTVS

[2] = microbe, parasite or virus in culture; format: functional; conditions: Mycobacterium tuberculosis
[3] = HEK-293T viability loss after treatment – luminescence, T-cell screen hits, cytotoxicity control for TCR NF-kB inhibitor project, dose response (AID 489026); format: functional, cell-based;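 also: cells exposed to compound about 14 hours before the viability readout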
[4] = molecular target: T2, Corticotropin-releasing factor receptor 2/Corticotropin-releasing factor-binding protein (Homo sapiens, UniProt P24387+Q13324); test: activators of CRF receptor 2 with binding protein – uHTS hits, confirmation (AID 602473); format: functional; conditions: read-out: EC50_Mean
T2 sequence (Q13324 whole entry): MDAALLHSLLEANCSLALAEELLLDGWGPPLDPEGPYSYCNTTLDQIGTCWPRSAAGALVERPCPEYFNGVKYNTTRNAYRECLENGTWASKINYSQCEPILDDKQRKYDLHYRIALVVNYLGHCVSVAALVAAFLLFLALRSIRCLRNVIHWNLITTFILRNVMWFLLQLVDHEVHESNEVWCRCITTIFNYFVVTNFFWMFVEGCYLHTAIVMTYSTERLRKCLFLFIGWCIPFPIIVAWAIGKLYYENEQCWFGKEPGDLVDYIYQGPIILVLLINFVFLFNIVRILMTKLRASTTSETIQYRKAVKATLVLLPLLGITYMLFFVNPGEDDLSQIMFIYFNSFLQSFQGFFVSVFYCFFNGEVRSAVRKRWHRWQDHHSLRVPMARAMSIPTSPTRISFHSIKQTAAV
T2 sequence (P24387 whole entry): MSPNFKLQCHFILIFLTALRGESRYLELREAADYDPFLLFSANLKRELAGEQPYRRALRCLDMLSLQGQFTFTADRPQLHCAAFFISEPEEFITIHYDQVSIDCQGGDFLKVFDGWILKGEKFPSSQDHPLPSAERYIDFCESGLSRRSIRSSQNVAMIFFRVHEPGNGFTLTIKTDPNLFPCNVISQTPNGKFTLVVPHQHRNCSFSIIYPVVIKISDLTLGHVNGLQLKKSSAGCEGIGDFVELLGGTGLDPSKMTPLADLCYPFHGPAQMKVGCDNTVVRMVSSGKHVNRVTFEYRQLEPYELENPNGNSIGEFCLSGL

[5] = molecular target: T2, Corticotropin-releasing factor receptor 2/Corticotropin-releasing factor-binding protein; test: Dose Response confirmation of uHTS hits for small molecule antagonists of the CRF-binding protein and CRF-R2 receptor complex.; format: functional; conditions: read-out: IC50_Mean
[6] = tested on: BJ; test: cells; format: functional, cell-based; conditions: Homo sapiens
[7] = tested on: BJ; test: BJ-TERT fibroblast viability loss – cell-based, RAS-independent, luminescence, dose response (AID 1933); format: functional; conditions: Homo sapiens
[8] = tested on: BJ; test: BJ-TERT-LT-ST fibroblast viability loss – cell-based, RAS-independent, luminescence, dose response (AID 1935); format: functional; conditions: Homo sapiens;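 also: BJ fibroblasts immortalized with TERT plus LT and ST oncogenes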
[9] = DRD fibroblast viability loss – cell-based, non-viral oncogenic, luminescence, dose response (AID 1934); format: functional; conditions: Homo sapiens
[10] = molecular target: T3, Fatty acid synthase (Homo sapiens, UniProt P49327); test: inhibition of human FAS-TE enzyme activity – biochemical, endpoint fluorescence intensity, uHTS hits, dose response (AID 624327); format: functional;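 also: fluorescence from hydrolysis of an O-methyl fluorescein acyl ester substrate by the enzyme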
T3 sequence (P49327 whole entry): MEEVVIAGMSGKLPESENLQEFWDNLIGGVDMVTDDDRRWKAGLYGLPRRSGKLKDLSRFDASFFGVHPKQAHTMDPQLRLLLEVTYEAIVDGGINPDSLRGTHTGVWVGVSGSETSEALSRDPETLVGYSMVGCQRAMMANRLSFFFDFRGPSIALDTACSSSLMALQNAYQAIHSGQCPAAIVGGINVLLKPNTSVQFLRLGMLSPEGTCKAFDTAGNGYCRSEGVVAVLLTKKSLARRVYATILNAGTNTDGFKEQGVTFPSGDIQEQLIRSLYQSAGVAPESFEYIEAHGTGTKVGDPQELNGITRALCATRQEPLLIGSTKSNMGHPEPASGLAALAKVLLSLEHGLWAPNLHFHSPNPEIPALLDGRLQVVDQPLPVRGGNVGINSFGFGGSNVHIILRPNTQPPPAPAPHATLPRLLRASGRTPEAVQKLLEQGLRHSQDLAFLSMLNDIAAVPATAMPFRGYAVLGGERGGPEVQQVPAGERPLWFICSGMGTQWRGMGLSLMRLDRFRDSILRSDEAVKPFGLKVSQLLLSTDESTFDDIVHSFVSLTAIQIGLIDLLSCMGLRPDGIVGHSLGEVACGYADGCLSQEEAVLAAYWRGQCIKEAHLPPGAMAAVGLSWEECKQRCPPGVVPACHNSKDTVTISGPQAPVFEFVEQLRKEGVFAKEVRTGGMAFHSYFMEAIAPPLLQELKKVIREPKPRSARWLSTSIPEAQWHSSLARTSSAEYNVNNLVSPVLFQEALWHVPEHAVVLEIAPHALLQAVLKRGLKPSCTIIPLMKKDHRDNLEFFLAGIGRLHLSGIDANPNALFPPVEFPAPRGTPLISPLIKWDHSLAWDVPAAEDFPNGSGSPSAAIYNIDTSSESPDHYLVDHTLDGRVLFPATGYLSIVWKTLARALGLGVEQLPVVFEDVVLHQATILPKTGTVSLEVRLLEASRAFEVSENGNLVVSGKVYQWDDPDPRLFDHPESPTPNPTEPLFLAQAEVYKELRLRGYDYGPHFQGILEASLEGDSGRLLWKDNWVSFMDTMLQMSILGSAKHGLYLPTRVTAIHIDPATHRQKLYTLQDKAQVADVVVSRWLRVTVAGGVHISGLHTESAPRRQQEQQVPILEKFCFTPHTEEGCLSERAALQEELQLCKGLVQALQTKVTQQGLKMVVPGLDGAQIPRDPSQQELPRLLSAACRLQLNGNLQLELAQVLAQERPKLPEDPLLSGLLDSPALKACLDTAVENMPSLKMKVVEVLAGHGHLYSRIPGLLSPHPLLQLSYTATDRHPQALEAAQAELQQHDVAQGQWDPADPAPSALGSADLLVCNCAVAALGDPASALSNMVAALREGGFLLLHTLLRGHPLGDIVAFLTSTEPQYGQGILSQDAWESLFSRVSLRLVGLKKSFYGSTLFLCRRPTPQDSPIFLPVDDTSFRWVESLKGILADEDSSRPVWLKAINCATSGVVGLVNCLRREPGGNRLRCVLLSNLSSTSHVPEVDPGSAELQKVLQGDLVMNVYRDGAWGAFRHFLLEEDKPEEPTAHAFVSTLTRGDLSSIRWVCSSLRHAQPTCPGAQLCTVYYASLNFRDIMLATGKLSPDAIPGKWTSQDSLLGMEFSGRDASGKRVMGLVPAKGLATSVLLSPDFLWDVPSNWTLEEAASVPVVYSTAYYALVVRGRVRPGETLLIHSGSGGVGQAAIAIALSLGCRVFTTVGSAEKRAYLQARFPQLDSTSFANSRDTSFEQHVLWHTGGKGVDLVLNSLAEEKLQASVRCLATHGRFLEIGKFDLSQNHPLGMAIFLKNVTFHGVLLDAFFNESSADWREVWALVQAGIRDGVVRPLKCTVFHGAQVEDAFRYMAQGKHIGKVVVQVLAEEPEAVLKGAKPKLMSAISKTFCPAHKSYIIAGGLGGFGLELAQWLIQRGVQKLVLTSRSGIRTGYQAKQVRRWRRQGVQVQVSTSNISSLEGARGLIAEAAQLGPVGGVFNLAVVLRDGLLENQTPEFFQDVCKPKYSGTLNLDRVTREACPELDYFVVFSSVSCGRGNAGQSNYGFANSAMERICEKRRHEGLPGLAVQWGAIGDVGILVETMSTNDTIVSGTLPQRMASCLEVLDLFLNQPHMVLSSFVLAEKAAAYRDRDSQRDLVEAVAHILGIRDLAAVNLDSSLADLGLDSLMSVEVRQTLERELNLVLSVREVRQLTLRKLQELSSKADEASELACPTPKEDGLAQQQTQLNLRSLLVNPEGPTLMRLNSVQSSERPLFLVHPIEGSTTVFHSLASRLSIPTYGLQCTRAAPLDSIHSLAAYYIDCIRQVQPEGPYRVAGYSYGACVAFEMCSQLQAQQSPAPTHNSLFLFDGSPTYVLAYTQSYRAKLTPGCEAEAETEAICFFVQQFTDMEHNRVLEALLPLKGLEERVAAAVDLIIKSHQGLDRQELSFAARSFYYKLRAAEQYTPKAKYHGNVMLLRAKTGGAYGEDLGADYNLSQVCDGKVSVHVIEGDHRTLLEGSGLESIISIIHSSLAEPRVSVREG

[11] = molecular target: T3, Fatty acid synthase; test: inhibition of human FAS-TE enzyme activity – biochemical, kinetic fluorescence intensity, dose response (AID 624326); format: functional;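 also: rate of fluorescence rise from hydrolysis of a fluorogenic O-methyl fluorescein ester substrate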
[12] = non-specific 3'UTR reporter inhibition in Clone20-Shn3RL – cell-based, Renilla luciferase, cherry-picked, counter-screen for Shn3 inhibitor project, dose response (AID 624133); format: functional
[13] = tested on: INS1; test: INS-1E survival protection against cytokine death – cell-based, luminescence, retest, dose response (AID 449756); format: functional; conditions: Rattus norvegicus;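 also: cell death triggered by IL-1 beta plus TNF-alpha plus IFN-gamma mixture; protective hits raise ATP signal compared with cytokine alone wells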
[14] = loss of viability in HepG2 cells – cell-based, CellTiter-Glo, cherry-picked, cytotoxicity control for Shn3 inhibitor project, dose response (AID 624134); format: functional
[15] = reduction of Shn3 3'UTR-driven luciferase in osteoblasts – cell-based, Clone20 osteoblasts, firefly luciferase, cherry-picked, dose response (AID 624132); format: functional;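 also: firefly luciferase luminescence from reporter carrying the Shn3 3'UTR in osteoblasts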

Which results are given for `CCc1ccc(NC(=O)CSc2nc3nnc(C)c-3c(N)n2-c2cccc(OC)c2)cc1`?
EC50 [1]: 118 µM (active); CC50 [2]: 22.6 µM (active)

For `CCCN(C(=O)CCOc1ccc(C(C)(C)C)cc1)c1c(N)n(Cc2ccccc2)c(=O)[nH]c1=O`, which CC50 [2] is on record?
Its CC50 is > 40 µM (active).

For `COc1ccc(Nc2nc3cc(C)ccc3cc2C#N)c(OC)c1`, which IC50 [3] is on record?
Its IC50 is > 80 µM (inactive).

With `COC(=O)c1ccc(Oc2cc(C)nc(SC)n2)cc1` as the compound, how does the IC50 [3] read?
The IC50 was > 80 µM (inactive).

Which results are given for `COc1ccc(NC(=O)CCN2CCCCCC2)cc1`?
EC50 [4]: > 53 µM (inactive); IC50 [5]: > 47.1 µM (inactive)

Which EC50 [6] does the source give for `Cc1ccc(C(=O)c2cc([N+](=O)[O-])ccc2N2CCCCC2)cc1C` here?
Its EC50 is 35.6 µM (active).

What about the IC50 [3] of the same compound?
Its IC50 is > 80 µM (inactive).

And the EC50 [7]?
The EC50 was 1.69 µM (active).

What about the EC50 [8] of the same compound?
Its EC50 is 1.33 µM (active).

And the EC50 [9]?
Its EC50 is 0.966 µM (active).

For `CC(=O)N(Cc1ccco1)c1nc(C(=O)Nc2ccc(Cl)cc2)c(C)s1`, which EC50 [4] is on record?
Its EC50 is > 53 µM (inactive).

What about the IC50 [5] of the same compound?
The IC50 was > 47.1 µM (inactive).

With `COc1ccc(C(=O)OCC(=O)NCCCc2ccccc2)cc1[N+](=O)[O-]` as the compound, how does the IC50 [10] read?
The IC50 was 4.1 µM (active).

What about the IC50 [11] of the same compound?
Its IC50 is 4.84 µM (active).

With `O=C(CC1N=C2c3ccccc3N=C(SCc3ccccc3Cl)N2C1=O)NCc1ccco1` (centres undefined) as the compound, how does the EC50 [4] read?
Its EC50 is > 53 µM (inactive).

And the IC50 [5]?
Its IC50 is > 47.1 µM (inactive).

What does the source list for `CC(=O)N1CCCc2cc(S(=O)(=O)N3CCCC(C(=O)N4CCN(c5cccc(Cl)c5)CC4)C3)ccc21` (centres undefined)?
AC50 [12]: 1.13 µM (active); AC50 [13]: 2.88 µM (active); AC50 [14]: 3.29 µM (active); AC50 [15]: 1.9 µM (active)

Which IC50 [10] does the source give for `C=CCOC(=O)COc1ccc2c(C)c(CC)c(=O)oc2c1` here?
Its IC50 is 5.57 µM (active).

And the IC50 [11]?
Its IC50 is 3.08 µM (active).
